In patent US7910574B2, “Treatments for the control of schistosomiasis” (Illinois State University, priority 2007, dated 2011):

How the values were obtained:
[1] = test system: S. mansoni infections in mice; conditions: juvenile liver parasites targeted, mouse model; cited from earlier work
S. mansoni infected mice = assay: In vivo drug treatment of S. mansoni infected mice; design: species or system Schistosoma mansoni; conditions: for decrease in worm burden vs control infected mice: perfusion day 49
[2] = test system: parasite lactate dehydrogenase; assay: Lactate dehydrogenase control enzyme activity in homogenates of treated worms; assay type: cell-based, Schistosoma mansoni; conditions: 10 μM, treated worm homogenates
[3] = biological target: parasite TGR (thioredoxin reductase activity) (Schistosoma mansoni, UniProt Q962Y6); assay: Thioredoxin reductase activity of TGR in homogenates of treated cultured worms; conditions: 10 μM, 18 hrs treatment of cultured worms
Experimental: (§1) Freshly perfused adult S. mansoni worms were cultured with 10 μM furoxan or 50 μM NBPPTA. […] The activity of lactate dehydrogenase was monitored as a control enzyme.
(§2) Enzyme assays were performed at 25° C. in 0.1 M potassium phosphate, pH 7.4, 10 mM EDTA. Thioredoxin reductase activity of TGR was determined using either 3 mM 5,5′ dithiobis(2-nitrobenzoic acid) (DTNB, Ellman's reagent) or 16 μM recombinant S. mansoni thioredoxin-1 (Alger et al 2002). One enzyme unit was defined as the NADPH-dependent production of 2 μmol of 2-nitro-5-thiobenzoic acid per minute using ε412 nm=13.6 mM^−1 cm^−1 or the consumption of 1 μmol of NADPH (ε340 nm=6.22 mM^−1 cm^−1) during the first three minutes. Glutathione reductase activity was determined with 100 μM GSH disulfide and 100 μM NADPH by measuring the decrease in A340 nm due to consumption of NADPH (ε340 nm=6.22 mM^−1 cm^−1) during the first three minutes. Activity of the control enzyme lactate dehydrogenase (LDH) was determined with 10 μM sodium pyruvate and 100 μM NADPH. Each assay was done in triplicate and each experiment was repeated three times.
(§3) Compounds were dissolved in dimethylsulfoxide (DMSO) and added at concentrations indicated to freshly perfused worms in RPMI1640 containing 25 mM Hepes, pH 7, 150 units/ml penicillin, 125 μg/ml streptomycin, and 10% fetal calf serum (Cell Grow, Fisher). […]

TGR = TGR (Schistosoma mansoni, UniProt Q962Y6); assay: Mode of TGR inhibition; conditions: through release of NO
[4] = test system: murine myeloma cell line SP2/0; assay: Cytotoxicity assay (sulforhodamine B); assay type: cell-based
Experimental: To examine if furoxan is tolerated by mammalian cells, we incubated the murine myeloma cell line SP2/0 with the drugs at given concentrations and monitored cell viability at 24 hr and 120 hr. At 120 hr in 2 μM furoxan ˜25% mortality of myeloma cells was observed compared to 100% mortality of adult S. mansoni worms at the same concentration. Myeloma cells tolerated furoxan at concentrations as high as 100 μM. Differential cytotoxicity of furoxan on the worm survival and myeloma cells were also seen after 24 hrs of drug application.
Cytotoxicity assays were performed using sulforhodamine B to determine cellular protein content. Murine myeloma cell line SP2/0 was cultured in 96-well microtiter plates containing 0.2 ml of RPMI-1640 per well at a cell density of 900 per well at 37° C. in 5% CO2. Cells were treated with drug concentrations (or drug carrier alone) for times as indicated. After treatment, cells were fixed with 10% TCA at 4° C. for 1 hr. Fixed cells were rinsed to remove fixative and then stained in 0.4% (wt/vol) sulforhodamine B (Sigma) in 1% acetic acid for 35 min. After washing with 1% acetic acid and dye extraction in 10 mM Tris (pH 10.5), plates were read at A564 nm. The A564 nm of drug-treated cells was compared to carrier-only-treated cells.

adult S. mansoni worms [5] = test system: adult S. mansoni worms
[6] = 10 mg/kg once a day, 5 days, ip; cited from earlier work
[7] = biological target: recombinant S. mansoni TGR (Schistosoma mansoni, UniProt Q962Y6); assay: NO release with recombinant SmTGR (ABTS oxidation); assay type: biochemical; conditions: 10 μM oxadiazole, 15 nM SmTGR, P<0.05
Experimental: Because oxadiazoles are known to release nitric oxide (NO) at physiological levels of thiols, we examined if NO release played a part in their mechanism of action (TGR inhibition and worm killing). […] The NO releasing capability of oxadiazoles was next tested with recombinant S. mansoni TGR enzyme with and without NADPH.
NO release by different oxadiazoles was determined by 2,2′-azino-bis(3-ethylbenzthiazoline-6-sulphonic acid) [ABTS, Sigma] oxidation method [Nims et al, Methods 7, 48-54; 1995]. Different oxadiazoles at 10 μM were incubated at RT for 50 minutes with 15 nM recombinant SmTGR in the presence or absence of 100 μM NADPH. The (oxadiazole+SmTGR/±NADPH) mixture was then added to an aerobic PBS, pH 7.4, containing 5 mM ABTS. The absorbance of the resulting green ABTS^+ were measured at A660. A conversion factor was calculated to adjust the readings from 1 ml reaction to 96-well plate. The concentrations of the released NO were calculated as a percentage of the added oxadiazoles. Each reaction was done in triplicate and the data is the average of three independent experiments. […] The slope of the regression line was calculated and used to recalculate the data at A660 in 200 μl reaction [Nims et al, Methods 7, 48-54; 1995].

[8] = biological target: parasite TGR (GSH reductase activity) (Schistosoma mansoni, UniProt Q962Y6); assay: Glutathione reductase activity of TGR in homogenates of treated cultured worms; conditions: 10 μM, 18 hrs treatment of cultured worms
Experimental: as §1, §2, §3

adult S. mansoni worms [9] = assay: microbe, parasite or virus in culture; conditions: Schistosoma mansoni

Sequence of recombinant S. mansoni TGR (Q962Y6 1-598): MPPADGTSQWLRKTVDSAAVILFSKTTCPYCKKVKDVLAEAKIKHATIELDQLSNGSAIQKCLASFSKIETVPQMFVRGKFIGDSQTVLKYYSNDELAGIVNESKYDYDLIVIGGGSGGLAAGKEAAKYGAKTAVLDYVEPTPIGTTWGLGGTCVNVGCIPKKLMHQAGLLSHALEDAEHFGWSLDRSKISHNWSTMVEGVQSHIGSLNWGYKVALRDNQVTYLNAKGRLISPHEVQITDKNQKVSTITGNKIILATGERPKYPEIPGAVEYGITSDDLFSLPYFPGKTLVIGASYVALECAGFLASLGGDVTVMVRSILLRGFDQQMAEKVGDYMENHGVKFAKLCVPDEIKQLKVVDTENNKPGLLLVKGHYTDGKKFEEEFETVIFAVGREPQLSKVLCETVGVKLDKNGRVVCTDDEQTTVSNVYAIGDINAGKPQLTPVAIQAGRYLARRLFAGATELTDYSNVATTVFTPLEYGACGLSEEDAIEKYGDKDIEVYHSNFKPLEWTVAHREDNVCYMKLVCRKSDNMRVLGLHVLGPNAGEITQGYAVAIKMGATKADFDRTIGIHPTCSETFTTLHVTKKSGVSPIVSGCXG
Sequence of parasite TGR (thioredoxin reductase activity) (Q962Y6 1-598): as above
Sequence of TGR (Q962Y6 1-598): as above
Sequence of parasite TGR (GSH reductase activity) (Q962Y6 1-598): as above

For `O=C(C1CCCCC1)N1CC(=O)N2CCc3ccccc3C2C1` (stereo not drawn) [PZQ, praziquantel], the “reduction in worm burdens” value [1] is given as 25-30%.
With `N#Cc1c(-c2ccccc2)no[n+]1[O-]` [Analogue 9] the “reduction in worm burdens, all trials in mice” value (S. mansoni infected mice; 10 mg/kg, regardless of lifecycle stage) was no less than 89%, the adult parasites recovered (S. mansoni infected mice; early stage treatment (treatment 1), total from the eight mice infected) was “one” and the liver egg granulomas (S. mansoni infected mice; treatment 1 (skin stage)) was “no signs of egg granulomas”. For the same molecule, the “hepatomegaly vs control infected mice” value (S. mansoni infected mice; treatment 1 (skin stage), P<0.0001) was “reduction of hepatomegaly”, the “decrease in worm burden vs control infected mice” value (“decrease in worm burden” for short) (S. mansoni infected mice; treatment 1: 10 mg/kg ip once daily x5 from day 1 after infection (skin stage)) was greater than 99% and the “number of liver granulomas vs control infections” value (S. mansoni infected mice; treatment 2 (juvenile liver stage)) was “considerably reduced”. The “hepato- and splenomegaly vs control infected mice” value (S. mansoni infected mice; treatment 2 (juvenile liver stage), P<0.0001) was “dramatic reductions in hepato- and splenomegaly”, the “decrease in worm burden” value (S. mansoni infected mice; treatment 2: 10 mg/kg ip once daily x5 from day 23 (juvenile liver stage)) was 89% and the “egg-induced liver granulomas vs control group” value (S. mansoni infected mice; treatment 3 (adult stage)) was “greatly reduced number”. The “hepatomegaly vs control group” value (S. mansoni infected mice; treatment 3 (adult stage), P<0.0001) was “dramatic reduction in hepatomegaly”, the “decrease in worm burden” value (S. mansoni infected mice; treatment 3: 10 mg/kg ip once daily x5 from day 37 (adult egg laying)) was 94% and the “activity of parasite lactate dehydrogenase vs carrier only treated worms” value [2] was “no significant change”. For the same molecule, the “reduction of thioredoxin reductase activity of parasite TGR vs carrier control” value [3] was 83%, the “mode of inhibition of TGR” value (TGR) was “time-dependent irreversible inhibition” and the “concentration tolerated by myeloma cells” value [4] was no more than 100 µM. The “mortality of myeloma cells” value ([4]; 2 μM, 120 hr) was roughly 25%, the “activity against adult parasites” value (adult S. mansoni worms [5]; 0.38 μg/ml, longer times) was “active” and the “time to kill worms” value (adult S. mansoni worms [5]; 2 μM) was 120 h. For the same molecule, the “worm viability with NO scavenger” value (adult S. mansoni worms [5]; 10 μM furoxan with 100 μM carboxy-PTIO) was “extended”, the parasite death (adult S. mansoni worms [5]; 10 μM, within 24 hr, axenically cultured adult worms) was 100% and the tolerability in mice [6] was “well tolerated”. For the same molecule, the “NO release relative to the other oxadiazoles tested” value ([7]; +NADPH) was 10 ×, the “NO release relative to the other oxadiazoles tested” value ([7]; −NADPH) was 3 × and the “reduction of GSH reductase activity of parasite TGR vs carrier control” value [8] was 93%. For the same molecule, the inhibition at 1.87 µg/mL (adult S. mansoni worms [9]; 24 h, read-out: inhibition of motility of adult parasites) was 100% and the mortality at 2 µM (adult S. mansoni worms [9]; 120 h, read-out: mortality of adult S. mansoni worms) was 100%.
